Consider nine compounds from PMC12624434 (ACS Pharmacology & Translational Science, 2025).

For data set [1] the following is noted: pK BHX scale; no reference given; cited from earlier work.
The next data set has as its target T1, NRP1 b1 domain (Homo sapiens, UniProt O14786).
T1 construct: with the purified recombinant NRP1 b1 domain immobilized on the chip; inferred from Ni-NTA capture), TEV-cleavable (cleaved yes); made in house; host or cells: E. coli Rosetta (DE3)
T1 sequence (O14786 275-424 limits assumed): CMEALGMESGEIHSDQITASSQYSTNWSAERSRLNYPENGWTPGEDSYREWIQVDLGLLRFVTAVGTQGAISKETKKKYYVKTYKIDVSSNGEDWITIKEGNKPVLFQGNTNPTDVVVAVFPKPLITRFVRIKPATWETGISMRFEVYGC
The experiment in a line: SPR binding to immobilized NRP1 b1 domain (Biacore 4000, CM5 chip). Conditions: steady-state binding, 25 °C, mean ± SD; for Kd: read-out: SPR NRP1 b1 domain equilibrium KD. How it is done:
Surface Plasmon Resonance experiments were performed using a Biacore 4000 instrument at a constant temperature of 25 °C. Sensor chips, buffer stock solutions, and immobilization reagents were purchased from GE Healthcare. Recombinant human NRP1-b1 was produced in-house and recombinant human NRP1-ECD (extracellular domain) was purchased from ACRO (catalogue number NR1-H5A228). All other reagents were obtained from Sigma.
PBS containing 0.05% surfactant P20 was used as the running buffer during immobilization. NRP1-b1 was immobilized onto a CM5 chip using random amine coupling. The four flow cells were treated in the same way to optimize throughput. In summary, spots 1 and 2 were activated with the coupling reagents EDC and NHS for 10 min. NRP1-b1 at a concentration of 20 μg/mL in 10 mM sodium acetate pH 5 was injected onto the surface for 10 and 5 min in spots 1 and 2, respectively to generate surfaces with high and low density. […] The unmodified spot 3 was used as a reference.
PBS buffer containing 0.05% surfactant P20 and 3% DMSO was used as the running buffer and sample dilution buffer throughout these experiments. Dose–responses were obtained using a 2-fold sample dilution from 16 μM to 31 nM, using an injection time of 60 s. Surface regeneration between injections was not necessary, but a wash step with 1 M NaCl was included after injection of the highest concentration sample for each compound.
Binding curves were corrected for variations in DMSO concentration and normalized by molecular weight. Binding results to high and low-density surfaces were processed independently and the average ± SD is presented. K Ds reported are derived from steady-state binding responses and therefore correspond to the equilibrium binding affinity of the compounds.
On the technique in general: In SPR one partner is held on a chip, and binding of the other changes the refractive index at the surface.

Another data set has as its target T2, NRP1-a1,b1 (Homo sapiens, UniProt O14786).
T2 sequence (O14786 273-427 limits assumed): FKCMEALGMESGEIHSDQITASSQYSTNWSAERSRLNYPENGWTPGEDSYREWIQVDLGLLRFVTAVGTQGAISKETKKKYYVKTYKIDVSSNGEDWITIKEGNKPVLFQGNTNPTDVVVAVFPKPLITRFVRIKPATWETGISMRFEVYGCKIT
The experiment in a line: bt-VEGFA cell-free competition binding assay (plate-based). On the procedure: The assay was conducted as previously described. Briefly, the 96-well plates were precoated with NRP1 protein at 3 μg/mL overnight at 4 °C. On the following day, the plates were treated with blocking buffer (PBS containing 1%1% BSA) and washed three times with wash buffer (PBS containing 0.1% Tween-20). The various concentrations of compounds diluted in PBS containing 1%1% DMSO were added, followed by addition of 0.25 nM of bt-VEGFA165. After 2 h of incubation at room temperature, the plates were washed three times with wash buffer. The bound bt-VEGFA165 to NRP1 was detected by streptavidin– horseradish peroxidase conjugates and the enzyme substrate, and measured using a Tecan Genius plate reader at 450 nm with a reference wavelength at 595 nm. Nonspecific binding was determined in the absence of NRP1-coated wells of the plates.

A short description of data set [2]: Pharmacokinetics in mice, 2 mg/kg iv. It is filed as in vivo. Conditions: female, BALB/c, mouse, plasma; for clearance: iv, 2 mg/kg; for AUC: read-out: AUCall. How it is done: To test compound drug-like properties, selected compounds with low IC50 were further evaluated for their pharmacokinetic (PK) profile. 6–8 week-old BABL/c female mice were used. Two mg/kg of compounds was formulated in 7.5% DMSO and 92.5% PBS solution and intravenously dosed into the tail vein as a bolus. Blood samples were collected by cardiac puncture at 5, 15, 30, 60, 180, and 240 min post dosing. Plasma samples were prepared by centrifugation at 7000 rpm for 5 min, and supernatants were collected, immediately snap-frozen on dry ice and stored at −20 °C. Samples were analyzed by liquid chromatography-tandem mass spectrometry using electrospray ionization and data was analyzed by WinNonlin software.

The nature of data set [3]: Solubility (observation during SPR). It is filed as physicochemical. Conditions: noted with SPR data fitting.
Where [4] appears, read: plate-based assay, Figure 2D, read-out: IC50, competitive inhibition of bt-VEGFA binding to NRP1.
The mark [5] stands for this setting: 0.25 nM bt-VEGFA165, mean ± SEM, at least three independent experiments, read-out: Competition analysis bt-VEGFA, cell-free NRP1-a1,b1 IC50.

SMILES strings stand for the structures. Entries after “also recorded” stand apart in the source; their conditions may differ. Like-named read-outs stand apart in the source and are kept apart here. Bounds are passed on as bounds.

Consider `C1CCOC1` [tetrahydrofuran], for which, in data set [1], the “pK BHX (hydrogen bond acceptor strength)” value was 1.28.
Regarding `CN(C)c1nc(CNc2cc(S(=O)(=O)Nc3ccsc3C(=O)N[C@@H](CCCNC(=N)N)C(=O)O)c3ncccc3c2)cs1.O=CO` [Compound 12g, (2S)-2-[[3-[[6-[[2-(Dimethylamino)-thiazol-4-yl]-methylamino]-8-quinolyl]-sulfonylamino]-thiophene-2-carbonyl]-amino]-5-guanidino-pentanoic Acid, Formic Acid], the “SPR NRP1 b1 domain equilibrium KD” value on NRP1 b1 domain was “did not converge; also recorded: Curve fit does not converge”. In addition, the IC50 (usually the concentration that inhibits the measured activity by half) at NRP1-a1,b1 (setting [4]) is below 500 nM. In addition, in data set [2], the AUC(0-inf) (usually the area under the concentration-time curve extrapolated to infinity) was found to be 491 ng·h/mL; the area under the curve AUC(0-t) (as a rule, the area under the concentration-time curve up to a stated or last time point) is 490 ng·h/mL; the concentration peaked (Cmax) at 2050 ng/mL; the Tmax (in general, the time at which the peak concentration occurs) turned out to be 4.8 min. In addition, in data set [2], the Vd (in general, a proportionality between amount in the body and measured concentration, not a real space) was 0.569 L/kg; the half-life (in general, the time needed for the level to fall by half in the phase considered) was 23.4 min; the clearance (in general, the rate of elimination divided by the concentration) came to 67.9 mL/min/kg; the AUC amounted to 490 ng·h/mL. The solubility result in data set [3] is on record as “poor solubility”.
As to `CCOCC` [diethyl ether], in data set [1], the “pK BHX (hydrogen bond acceptor strength)” value is recorded as 1.01.
Turning to `N=C(N)NCCC[C@H](NC(=O)c1sccc1NS(=O)(=O)c1cccc2cccnc12)C(=O)O` [Compound 12o, (S)-5-Guanidino-2-{[3-(quinoline-8-sulfonylamino)-thiophene-2-carbonyl]-amino}-pentanoic Acid], the Kd (commonly the free concentration of one partner at which half of the binding sites on the other are occupied at equilibrium, for simple one-to-one binding) on NRP1 b1 domain worked out at 1410 ± 160 nM. The IC50 at NRP1-a1,b1 (setting [5]) stood at 900 ± 160 nM.
Take `c1ccc2ncccc2c1` [quinoline]: the “pK BHX (hydrogen bond acceptor strength)” value in data set [1] was 1.89.
As to `c1c[nH]cn1` [imidazole], the “pK BHX (hydrogen bond acceptor strength)” value in data set [1] is given as 2.72.
With `CNc1nc(CNc2cc(S(=O)(=O)Nc3ccsc3C(=O)N[C@@H](CCCNC(=N)N)C(=O)O)c3ncccc3c2)cs1` [Compound 12j, (2S)-5-Guanidino-2-[[3-[[6-[[2-(methylamino)-thiazol-4-yl]-methylamino]-8-quinolyl]-sulfonylamino]-thiophene-2-carbonyl]-amino]-pentanoic Acid], the Kd at NRP1 b1 domain was found to be 530 ± 140 nM. On NRP1-a1,b1 (setting [5]), the IC50 is 450 ± 10 nM. Also, the IC50 at NRP1-a1,b1 (setting [4]) was below 500 nM. The “Competition analysis bt-VEGFA, cell-free NRP1-a1,b1 Hill coefficient” value at NRP1-a1,b1 (value in parentheses) is listed as 1.0. In data set [2], the AUC(0-inf) came to 643 ng·h/mL; the AUC(0-t) amounted to 640 ng·h/mL; the Cmax – broadly, the peak of the concentration-time curve – turned out to be 2500 ng/mL; the time of peak concentration (Tmax) amounted to 4.8 min. For the same compound, in data set [2], the Vd was found to be 0.628 L/kg, the half-life was 36 min, the clearance was 51.9 mL/min/kg and the AUC came out at 640 ng·h/mL.
Turning to `N=C(N)NCCC[C@H](NC(=O)c1sccc1NS(=O)(=O)c1cc(NCc2ccc(N)nc2)cc2cccnc12)C(=O)O` [Compound 12l, (2S)-2-[[3-[[6-[(6-Amino-3-pyridyl)-methylamino]-8-quinolyl]-sulfonylamino]-thiophene-2-carbonyl]-amino]-5-guanidino-pentanoic Acid, Formic Acid], the Kd on NRP1 b1 domain came to 1230 ± 360 nM.
Consider `N=C(N)NCCC[C@H](NC(=O)c1sccc1NS(=O)(=O)c1cc(NCc2cccc(N3CCOCC3)n2)cc2cccnc12)C(=O)O` [Compound 12k, (2S)-5-Guanidino-2-[[3-[[6-[(6-morpholino-2-pyridyl)-methylamino]-8-quinolyl]-sulfonylamino]-thiophene-2-carbonyl]-amino]-pentanoic Acid], for which the Kd at NRP1 b1 domain is 1140 ± 120 nM.
